Results taken from patent US20240400584A1, “COMPOUNDS AND METHODS FOR MODULATING SPLICING” (REMIX THERAPEUTICS INC., priority 2021, published 2024).

Assays:
Target C = experiment: Gene panel canonical junction qPCR assay, Target C CJ mRNA (Table 7); assay type: cell-based, human; conditions: Homo sapiens, read-out: Target C CJ mRNA decrease IC50
Summary of the method: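 A673 or K562 cells were treated with compound; lysates went through cDNA synthesis and RT-qPCR, with a probe or primer spanning the canonical exon–exon junction. ΔCt vs housekeeper (GAPDH, GUSB or PPIA), normalized to DMSO (2^(−ΔΔCt)), converted to percentage response; IC50 from 4-parameter logistic fit of CJ decrease.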

MYB = experiment: RT-qPCR splicing assay, MYB AJ/CJ mRNA; assay type: cell-based; conditions: Homo sapiens, A673 or K562 cells, 24 hours; for IC50: decrease in canonical junction mRNA; for AC50: increase in alternative junction mRNA
Summary of the method: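 Following 24 h compound exposure at 37 °C (11 points, 3-fold, highest 10 uM; DMSO ≤0.25%), A673 or K562 lysates underwent RT-qPCR for exon-inclusion (AJ) and canonical (CJ) junctions of HTT and MYB. Relative quantification used housekeeping-gene ΔCt and DMSO-normalized ΔΔCt, converted to percentage response.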

| SMILES | IC50 (Target C) [nM] | IC50 (MYB) [nM] | AC50 (MYB) [nM] |
| --- | --- | --- | --- |
| CN(c1ccc2c(n1)OCc1cc(-n3cccn3)ccc1-2)[C@@H]1C[C@H]2CC[C@@H](C1)N2 [Compound 149] | 100 to 1000 | 100 to 1000 | 100 to 1000 |
| COc1cc(-c2ccc3c(c2)COc2nc(N4CCC(N5CCCC5)C4)ccc2-3)cnn1 (stereo not drawn) [Compound 305] | 1000 to 10000 | 1000 to 10000 | 1000 to 10000 |
